Results reported in US11753407B2, “Compounds for treating spinal muscular atrophy” (PTC Therapeutics, Inc., priority 2012, dated 2023).

Experiments:
[1] = system: SMN2 minigene mRNA (SMN2-A minigene) in HEK293H cells; assay: SMN2 minigene mRNA splicing RT-qPCR assay in cultured cells; type: cell-based, human; details: Homo sapiens, HEK293-H; concentration increasing full length SMN2 mRNA 1.5-fold relative to vehicle-treated cells; HEK293H cells with SMN2-A minigene, 24 hours, 7-point concentration data; read-out: EC1.5x for production of full length SMN2 mRNA
Procedure, shortened: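 HEK293H cells stably carrying SMN2-A minigene treated with compounds (7-point, 3.16-fold dilutions, duplicates) for 24 h at 37 °C. Full-length exon 7-containing minigene mRNA measured by multiplex RT-qPCR with GAPDH, normalized and expressed relative to vehicle (modified ΔΔCt); EC1.5× is concentration giving 1.5-fold increase.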

[2] = system: Smn protein in SMA patient fibroblast cells (GM03813); assay: Smn protein assay in cultured cells (SMN HTRF); type: cell-based, human; details: SMA patient fibroblast cells, 48 hours; for EC1.5x for Smn protein expression: 7-point concentration curve, SMN HTRF, concentration producing 1.5 times Smn protein vs DMSO vehicle control; for maximum fold (Fold) increase of Smn protein: 7-point concentration data, fold relative to vehicle control
Procedure, shortened: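 SMA patient fibroblasts (5,000/well, DMEM-10% FBS) treated 48 h at 37° C with 7-point, 3.16-fold compound series in triplicate; lysates read by SMN HTRF (665/620 nm ratio). Fold Smn increase over DMSO vehicle derived; EC1.5× is concentration giving 1.5-fold Smn, with maximum fold also reported.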

## CCN1CCN(c2ccc3nc(-c4cc(Cl)c5nc(C)cn5c4)cc(=O)n3c2)C[C@@H]1C [Compound 496, 2-(8-chloro-2-methylimidazo[1,2-a]pyridin-6-yl)-7-[(3S)-4-ethyl-3-methylpiperazin-1-yl]-4H-pyrido[1,2-a]pyrimidin-4-one]
[1]
  EC (1.5-fold increase): < 0.1 µM
other
  melting point: 234 to 245 °C
[2]
  EC1.5x for Smn protein expression: **** (an EC1.5x≤0.3 μM is indicated by four stars (****))
  maximum fold (Fold) increase of Smn protein: ***** (a fold increase >1.65 is indicated by five stars (*****))

## Cc1cn2cc(-c3cc(=O)n4cc(N5CCN(C(C)C)[C@H](C)C5)ccc4n3)cc(Cl)c2n1 [Compound 497, 2-(8-chloro-2-methylimidazo[1,2-a]pyridin-6-yl)-7-[(3R)-3-methyl-4-(propan-2-yl)piperazin-1-yl]-4H-pyrido[1,2-a]pyrimidin-4-one]
[1]
  EC (1.5-fold increase): < 0.1 µM
other
  melting point: 278 to 281 °C
[2]
  EC1.5x for Smn protein expression: *** (an EC1.5× between >0.3 μM and ≤1 μM is indicated by three stars (***))
  maximum fold (Fold) increase of Smn protein: **** (a fold increase between >1.5 and ≤1.65 is indicated by four stars (****))

## Cc1cn2cc(-c3cc(=O)n4cc(N5CCN(C(C)C)[C@@H](C)C5)ccc4n3)cc(Cl)c2n1 [Compound 498, 2-(8-chloro-2-methylimidazo[1,2-a]pyridin-6-yl)-7-[(3S)-3-methyl-4-(propan-2-yl)piperazin-1-yl]-4H-pyrido[1,2-a]pyrimidin-4-one]
[1]
  EC (1.5-fold increase): < 0.1 µM
other
  melting point: 264 to 270 °C
[2]
  EC1.5x for Smn protein expression: **** (an EC1.5x≤0.3 μM is indicated by four stars (****))
  maximum fold (Fold) increase of Smn protein: ***** (a fold increase >1.65 is indicated by five stars (*****))

## Cc1nc2ccc(-c3cc(=O)n4nc(C5CCNCC5)ccc4n3)cc2o1 [Compound 499, 2-(2-methyl-1,3-benzoxazol-6-yl)-7-(piperidin-4-yl)-4H-pyrimido[1,2-b]pyridazin-4-one]
[1]
  EC (1.5-fold increase): < 0.1 µM
other
  melting point: 126 to 128 °C
[2]
  EC1.5x for Smn protein expression: **** (an EC1.5x≤0.3 μM is indicated by four stars (****))
  maximum fold (Fold) increase of Smn protein: ***** (a fold increase >1.65 is indicated by five stars (*****))

## Cc1nc2ccc(-c3cc(=O)n4nc(C5CCN(C)CC5)ccc4n3)cc2o1 [Compound 500, 2-(2-methyl-1,3-benzoxazol-6-yl)-7-(1-methylpiperidin-4-yl)-4H-pyrimido[1,2-b]pyridazin-4-one]
[1]
  EC (1.5-fold increase): 0.1 to 0.3 µM
other
  melting point: 272 to 275 °C
[2]
  EC1.5x for Smn protein expression: *** (an EC1.5× between >0.3 μM and ≤1 μM is indicated by three stars (***))
  maximum fold (Fold) increase of Smn protein: ***** (a fold increase >1.65 is indicated by five stars (*****))

## CCN1CCC(c2ccc3nc(-c4ccc5nc(C)oc5c4)cc(=O)n3n2)CC1 [Compound 501, 7-(1-ethylpiperidin-4-yl)-2-(2-methyl-1,3-benzoxazol-6-yl)-4H-pyrimido[1,2-b]pyridazin-4-one]
[1]
  EC (1.5-fold increase): 0.1 to 0.3 µM
other
  melting point: 284 to 286 °C
[2]
  EC1.5x for Smn protein expression: *** (an EC1.5× between >0.3 μM and ≤1 μM is indicated by three stars (***))
  maximum fold (Fold) increase of Smn protein: ***** (a fold increase >1.65 is indicated by five stars (*****))

## Cc1cn2nc(-c3cc(=O)n4cc(C5CCN(C)CC5)ncc4n3)cc2c(C)n1 [Compound 503, 2-(4,6-dimethylpyrazolo[1,5-a]pyrazin-2-yl)-7-(1-methylpiperidin-4-yl)-4H-pyrazino[1,2-a]pyrimidin-4-one]
[1]
  EC (1.5-fold increase): < 0.1 µM
other
  melting point: 257 to 259 °C
[2]
  EC1.5x for Smn protein expression: **** (an EC1.5x≤0.3 μM is indicated by four stars (****))
  maximum fold (Fold) increase of Smn protein: ***** (a fold increase >1.65 is indicated by five stars (*****))

## Cn1ncc2cc(-c3cc(=O)n4cc(C5=CCNCC5)ncc4n3)ccc21 [Compound 505, 2-(1-methyl-1H-indazol-5-yl)-7-(1,2,3,6-tetrahydropyridin-4-yl)-4H-pyrazino[1,2-a]pyrimidin-4-one]
[1]
  EC (1.5-fold increase): < 0.1 µM
other
  melting point: 228 to 230 °C
[2]
  EC1.5x for Smn protein expression: **** (an EC1.5x≤0.3 μM is indicated by four stars (****))
  maximum fold (Fold) increase of Smn protein: **** (a fold increase between >1.5 and ≤1.65 is indicated by four stars (****))

## CN1CC=C(c2cn3c(=O)cc(-c4ccc5c(cnn5C)c4)nc3cn2)CC1 [Compound 506, 2-(1-methyl-1H-indazol-5-yl)-7-(1-methyl-1,2,3,6-tetrahydropyridin-4-yl)-4H-pyrazino[1,2-a]pyrimidin-4-one]
[1]
  EC (1.5-fold increase): < 0.1 µM
other
  melting point: 234 to 236 °C
[2]
  EC1.5x for Smn protein expression: **** (an EC1.5x≤0.3 μM is indicated by four stars (****))
  maximum fold (Fold) increase of Smn protein: **** (a fold increase between >1.5 and ≤1.65 is indicated by four stars (****))

## Cc1cn2nc(-c3cc(=O)n4cc(N5CCN[C@H](C)C5)cc(C)c4n3)cc2c(C)n1 [Compound 509, 2-(4,6-dimethylpyrazolo[1,5-a]pyrazin-2-yl)-9-methyl-7-[(3R)-3-methylpiperazin-1-yl]-4H-pyrido[1,2-a]pyrimidin-4-one]
[1]
  EC (1.5-fold increase): < 0.1 µM
other
  melting point: 213 to 222 °C
[2]
  EC1.5x for Smn protein expression: *** (an EC1.5× between >0.3 μM and ≤1 μM is indicated by three stars (***))
  maximum fold (Fold) increase of Smn protein: **** (a fold increase between >1.5 and ≤1.65 is indicated by four stars (****))

## Cc1cn2nc(-c3cc(=O)n4cc(N5CCN(C)[C@H](C)C5)cc(C)c4n3)cc2c(C)n1 [Compound 510, 7-[(3R)-3,4-dimethylpiperazin-1-yl]-2-(4,6-dimethylpyrazolo[1,5-a]pyrazin-2-yl)-9-methyl-4H-pyrido[1,2-a]pyrimidin-4-one]
[1]
  EC (1.5-fold increase): < 0.1 µM
other
  melting point: 244 to 253 °C
[2]
  EC1.5x for Smn protein expression: **** (an EC1.5x≤0.3 μM is indicated by four stars (****))
  maximum fold (Fold) increase of Smn protein: ***** (a fold increase >1.65 is indicated by five stars (*****))

## CCN1CCN(c2cc(C)c3nc(-c4cc5c(C)nc(C)cn5n4)cc(=O)n3c2)C[C@H]1C [Compound 511, 2-(4,6-dimethylpyrazolo[1,5-a]pyrazin-2-yl)-7-[(3R)-4-ethyl-3-methylpiperazin-1-yl]-9-methyl-4H-pyrido[1,2-a]pyrimidin-4-one]
[1]
  EC (1.5-fold increase): < 0.1 µM
other
  melting point: 240 to 245 °C
[2]
  EC1.5x for Smn protein expression: ** (an EC1.5× between >1 μM and ≤3 μM is indicated by two stars (**))
  maximum fold (Fold) increase of Smn protein: **** (a fold increase between >1.5 and ≤1.65 is indicated by four stars (****))

## Cc1cn2nc(-c3cc(=O)n4nc(C5CCN(C)CC5)ccc4n3)cc2c(C)n1 [Compound 513, 2-(4,6-dimethylpyrazolo[1,5-a]pyrazin-2-yl)-7-(1-methylpiperidin-4-yl)-4H-pyrimido[1,2-b]pyridazin-4-one]
[1]
  EC (1.5-fold increase): 0.1 to 0.3 µM
other
  melting point: 265 to 267 °C
[2]
  EC1.5x for Smn protein expression: **** (an EC1.5x≤0.3 μM is indicated by four stars (****))
  maximum fold (Fold) increase of Smn protein: ***** (a fold increase >1.65 is indicated by five stars (*****))

## CCN1CCC(c2ccc3nc(-c4cc5c(C)nc(C)cn5n4)cc(=O)n3n2)CC1 [Compound 514, 2-(4,6-dimethylpyrazolo[1,5-a]pyrazin-2-yl)-7-(1-ethylpiperidin-4-yl)-4H-pyrimido[1,2-b]pyridazin-4-one]
[1]
  EC (1.5-fold increase): 0.1 to 0.3 µM
other
  melting point: 283 to 285 °C
[2]
  EC1.5x for Smn protein expression: ** (an EC1.5× between >1 μM and ≤3 μM is indicated by two stars (**))
  maximum fold (Fold) increase of Smn protein: ***** (a fold increase >1.65 is indicated by five stars (*****))

## Cc1cn2nc(-c3cc(=O)n4cc(N5CCC6NCCC6C5)ccc4n3)cc2c(C)n1 (centres unmarked) [Compound 515, 2-(4,6-dimethylpyrazolo[1,5-a]pyrazin-2-yl)-7-(octahydro-5H-pyrrolo[3,2-c]pyridin-5-yl)-4H-pyrido[1,2-a]pyrimidin-4-one]
[1]
  EC (1.5-fold increase): < 0.1 µM
other
  melting point: 198 to 200 °C
[2]
  EC1.5x for Smn protein expression: **** (an EC1.5x≤0.3 μM is indicated by four stars (****))
  maximum fold (Fold) increase of Smn protein: ***** (a fold increase >1.65 is indicated by five stars (*****))

## Cc1cn2cc(-c3cc(=O)n4cc(C5CCNCC5)ccc4n3)cc(Cl)c2n1 [Compound 516, 2-(8-chloro-2-methylimidazo[1,2-a]pyridin-6-yl)-7-(piperidin-4-yl)-4H-pyrido[1,2-a]pyrimidin-4-one]
[1]
  EC (1.5-fold increase): < 0.1 µM
other
  melting point: 287 to 293 °C
[2]
  EC1.5x for Smn protein expression: **** (an EC1.5x≤0.3 μM is indicated by four stars (****))
  maximum fold (Fold) increase of Smn protein: **** (a fold increase between >1.5 and ≤1.65 is indicated by four stars (****))

## Cc1cn2cc(-c3cc(=O)n4cc(C5CCN(C)CC5)ccc4n3)cc(Cl)c2n1 [Compound 517, 2-(8-chloro-2-methylimidazo[1,2-a]pyridin-6-yl)-7-(1-methylpiperidin-4-yl)-4H-pyrido[1,2-a]pyrimidin-4-one]
[1]
  EC (1.5-fold increase): < 0.1 µM
other
  melting point: 292 to 296 °C
[2]
  EC1.5x for Smn protein expression: **** (an EC1.5x≤0.3 μM is indicated by four stars (****))
  maximum fold (Fold) increase of Smn protein: ***** (a fold increase >1.65 is indicated by five stars (*****))
